Data on 3 molecules can be found in patent publication US6716596B2, “Agents for replacement of NAD+/NADH system in enzymatic reactions” (The Regents of the University of California, priority 2001, dated 2004).

The target of data set [1] is T1, horse liver alcohol dehydrogenase (HLADH) (Equus caballus, UniProt P00327).
T1 construct: purchased Sigma
Kind of data set: biomimetic reduction of norcamphor (racemic). The data set is classed as biochemical. Conditions: racemic norcamphor, same conditions for NAD^+. On the procedure:
Biomimic yield expressed in equivalent was 86% corresponding to NAD^+ yield of 94% under the same conditions.
(§1) [Cp*Rh(bpy)(H2O)]OTf2 (1.9 mg, 2.61×10^−3 mmol), sodium formate (17.8 mg, 261.69×10^−3 mmol), NAD^+ (8.1 mg, 11.23×10^−3 mmol) and HLADH (10 units) were placed in a 10 mL Schlenk flask, and Schlenk techniques were followed to deoxygenate the solid mixture.
(§2) Under positive argon pressure, 5 mL of potassium phosphate buffer (100 mM, pH=7.02, deoxygenated) and carbonyl substrate (83.58×10^−3 mmol, deoxygenated) were added via syringe. The reaction flask was immediately securely capped with a glass-stopper and shaken with a shaker in 30° C. water-bath. The reaction was monitored by gas chromatography (GC), equipped with a β-cyclodextrin column (Supelco, β-DEX-225), and the products were identified by comparing the retention time with the corresponding authentic chiral samples and were confirmed by GC-MS. The enantiomeric excess of the products was determined directly by their relative area in the chromatogram. The progress of the reaction was obtained by mixing the reaction aliquot with an internal standard (cyclohexanol in phosphate buffer), and then calibrating the measured relative area in the chromatogram with their corresponding response factors. The reaction was monitored for 24 hours.
The procedure described in section A is equally applicable to reduction of racemic compounds such as norcamphor, seen in FIG. 8. The method requires the following modification. Due to the sublimation of norcamphor in vacuo, the addition of norcamphor was conducted under positive argon pressure, followed by the addition of phosphate buffer via syringe.

Data set [2] addresses T1, horse liver alcohol dehydrogenase (HLADH). Kind of data set: HLADH enzymatic chiral reduction of ketones with biomimic co-factor regeneration. The data set is classed as biochemical. On the procedure:
FIG. 7 presents structures of ketone substrates 12-15 used for biomimic chiral synthesis of corresponding alcohols. Conversion of the substrates 12-15 to their corresponding alcohols are expressed in % yield, and TOF in d^−1 and S-enantiomer excess (ee) are also shown for each conversion. Corresponding values obtained with NAD^+ are given in parenthesis. The S-enantiomeric excess (ee) was determined by GLC with a modified β-cyclodextrin capillary column.
as §1, §2
The same procedure as described in section A was followed, except that NAD^+ was substituted with any one of the biomimic compounds of the invention.

Data set [3] can be described thus: regioselective reduction of biomimics with catalyst precursor (2) and sodium formate, followed by 1H NMR. Conditions: reduction to 1,4-dihydro derivative; NAD+ under the same conditions. On the procedure: The relative rates, seen tabulated in FIG. 1C, were determined by observing disappearance of the pyridinium signals versus an internal standard, [(CH3)4N]OTf (tetramethylammonium triflate), during the first 2 hours, where the relative rate of 1-benzylnicotinamide triflate (1) was set to 1.0. The turnover frequencies were calculated by the formation of mmol of product/mmol of catalyst/hour. The total turnover number in 24 hours was ˜95 for all substrates that gave product. The reactions were conducted in presilylated J. Young NMR tubes and were followed by ^1H NMR.
The electronic effect of differently substituted nicotinamide substrates was determined by their relative rates. The relative rates of these compounds were determined by observing the disappearance of the pyridinium signals compared to interval standard, [(CH3)4N]OTf, during the first 2 hours, where the relative rate of compound (1a) was 1.0.
In a typical reaction, a J. Young NMR tube was charged, biomimic substrates (1a)-(1i) (1.0 mol), 2 (1% mol), and HCO2Na (1.1 mol) used as the hydride source and a Schlenk techniques were conducted to deoxygenate the solid mixture. A diluted solvent was added to these solids for compounds (1a)-(1i), the solvent was D2O-THF-d8 (1=1 0.75 mL, deoxygenated), and the NMR tube was placed in a liquid nitrogen bath. The contents were further degassed by two successive freeze-pump-thaw cycles. After thawing out the reaction mixture, the J. Young NMR tube was immediately put in a salted ice-bath and covered with aluminum foil. The reaction was then followed by ^1H NMR spectroscopy at 26° C. temperature, after a speedy thawing out.
The given relative rates and turnover frequencies were determined by decreasing integration of the corresponding pyridinium salts measured against an internal standard, (CH3)4N(OTf), during the first 2 h of the reaction. The ratios of the 1,4- and 1,6-dihydronicotinamide derivatives of compounds (1a), (1b) and (1d)-(1g) were obtained by comparison of the resonance signals with those of authentic samples, where the diagnostic signal is the resonance for —CH2Ph moiety which can be identified unambiguously in the ^1H NMR spectrum.

A short description of data set [4]: UV-vis kinetics of the regioselective reduction with rhodium catalyst precursor (2) and formate. The source says:
The kinetics of the regioselective reduction reactions were further studied utilizing UV-vis techniques with the two biomimic compounds (1) and (6) and the results were compared to NAD^+ itself. Experimental conditions are described in Example 9.
The effect of the initial rate (ri) at low conversions to the 1,4-dihydro product (˜10%) was ascertained by varying the amount of substrate precatalyst (2) and sodium formate concentrations.
The initial rates (ri) of formation of compound (3) were obtained from plots of concentration (absorbance at 354 nm/ε) versus time at low conversions (˜10%). The values of kcat were calculated at 299° K.
Rates were obtained via UV-vis techniques and are an average of two runs.
This example describes studies producing kinetic and thermodynamic data for 1-benzylnicotinamide triflate (1a) performed in THF/H2O, 1:1, β-nicotinamide -5′-ribose methyl phosphate (6) H2O, pH=6.5, and NAD^+ performed in the regioselective reduction with [Cp*Rh(bpy)H2O)][OTf]2, 2 and in the presence of formate ion.
The kinetic experiments were carried out on a Hewlett Packard 8452A Diode Array Uv-Vis spectrophotometer, attached to a circulating water bath (VWR 1160). For experiments conducted at different temperatures, the circulating water bath, as well as the UV-vis instrument, were warmed up for at least an 1 hour before the kinic studies were initiated.
The 1-benzylnicotinamide triflate (1a) [CP*Rh(bpy)(H2O)][OTf]2 (2) and 1-benzyl-1,4 dihydronicotinamide (3) were synthesized by methods as described in Examples 2, 4 and 7. The NAD^+ and 1,4-NADH compounds were purchased from Sigma and used as received. The THF was distilled from Na and deoxygenate with N2 gas for 1 hour. Distilled water was purchased from Aldrich Chemical Co and deoxygenate prior to being used. A solution of THF/H2O (similar for 1:1 or 1:4 ratios) was used for all the kinetic experiments performed for compounds of 1-benzylnicotinamide type, unless otherwise specified. A stock solution of biomimic (1a) (0.018 M), 2 (6.23×10^−3 M), and sodium formate (0.25 M) were made for the kinetic experiments in THF/H2O (1:1).
A solution of 1-benzylnicotinamide triflate (1a), (4.29×10^−3 M) and sodium formate (0.0539) was made in a volumetric flask (10 mL) under N2 in a THF/H2O (1:1) mixture. The different concentration of biomimic (1a) and sodium formate used for the kinetic experiments are reported above.
A 3.0 mL aliquot of this solution was transferred to a thermostated UV-vis cell by using an air-free syringe, which was also purged with N2 gas. The sample was then brought to the desired temperature for 30-60 min in the UV-vis spectrophotometer thermostated cell holder. Then, 23 μL of a 6.23×10^−3 M stock solution of [CP*Rh(bpy)(H2O)^2+ (2), was added-by syringe under a positive N2 pressure, quickly mixed with the solution, and the absorbance increase at 354 nm was immediately recorded. The experiment was carried out for 2 hours and the formation of the product, 1-benzyl-1,4-dihydronicotinamide, (3) was followed, with the change in absorbance being recorded every 90 seconds. Some kinetic experiments were carried out until all the starting material was converted to product. The induced volume change was taken into account for the calculation of the turnover frequency (TOF).
The kinetic experiments for the β-nicotinamide-5′-ribose methyl phosphate (6) and natural NAD^+ were performed using the same general procedure described above. These kinetic experiments were carried out in H2O and the concentration of β-nicotinamide-5′-ribose methyl phosphate (6) or NAD^+, sodium formate, and [Cp*Rh(bpy)(H2O)]^2+ (2), were in the order of 1.50×10^−3, 0.0186 M, and 1.42×10^−5 M, respectively. The λmax for the β-nicotinamide-5′-ribose methyl phosphate, (6), and natural NAD^+ was 336 nm. In all the initial rate plots, time =0 s was removed from the plots of Concentration versus Time. The standard deviation of the ri were calculated from 2σ values.

A short description of data set [5]: water solubility of biomimics.

T1 sequence (P00327 2-375 limits assumed): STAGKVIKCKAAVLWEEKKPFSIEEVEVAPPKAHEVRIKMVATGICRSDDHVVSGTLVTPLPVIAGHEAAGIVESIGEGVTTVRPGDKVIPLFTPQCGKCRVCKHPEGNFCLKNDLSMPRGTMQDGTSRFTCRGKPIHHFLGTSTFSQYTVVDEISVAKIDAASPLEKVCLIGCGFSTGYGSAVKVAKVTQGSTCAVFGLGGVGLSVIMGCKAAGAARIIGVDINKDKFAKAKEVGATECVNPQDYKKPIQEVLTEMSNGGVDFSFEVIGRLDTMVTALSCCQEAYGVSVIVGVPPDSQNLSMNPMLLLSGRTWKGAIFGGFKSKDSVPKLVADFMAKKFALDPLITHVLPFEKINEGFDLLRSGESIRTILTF

As to `NC(=O)C1=CN([C@@H]2O[C@H](COP(=O)(O)OP(=O)(O)OC[C@H]3O[C@@H](n4cnc5c(N)ncnc54)[C@H](O)[C@@H]3O)[C@@H](O)[C@H]2O)C=CC1` [NAD^+, β-Nicotinamide adenine dinucleotide, reference compound], the “yield of norcamphor reduction expressed in equivalent” value in data set [1] came to 94%. Besides, the “turnover frequency of chiral ketone reduction” value in data set [2] (ketone (12) reduced by HLADH with co-factor regeneration, 24 hours) was approximately 30 day⁻¹. In data set [3], the “turnover frequency (TOF) in the regioselective reduction” value came to 18 h⁻¹. In data set [4] (294° K, H2O at pH 6.54, substrate 1.55 × 10^−3 M), this molecule displayed a TOF of 9 h⁻¹. Further, the ri initial rate in data set [4] (294° K, H2O at pH 6.54, substrate 1.55 × 10^−3 M, average of two runs) was determined as 3.1e-08 M/s. The “initial rate, times higher than compound (1) in THF/H2O (1:1)” value in data set [4] (acqueous medium, comparable concentrations) was approximately 3 times.
`C=CC(=O)OCCOCCOCC(=O)[n+]1cccc(C(N)=O)c1.[Br-]` [Compound 10, 1-(8-acryloyloxy-3,6-dioxaoctanoyl)-3-carbamoylpyridinium bromide]: the water solubility result in data set [5] is “both water and organic solvent soluble”.
For the molecule `COP(=O)(O)OC[C@H]1O[C@@H](N2C=CCC(C(N)=O)=C2)[C@H](O)[C@@H]1O` [Compound 7, β-1,4-dihydronicotinamide ribose-5′-methyl phosphate], the “recognition by HLADH as hydride catalyst of the chiral conversion” value in data set [2] is “recognizes”. In data set [5], the water solubility result is reported as “completely water soluble”.
